Laboratory results taken from PMC7316778 (Nature Communications, 2020).
Where “and” joins values, the source holds several entries; their conditions need not be identical. Equal entries are not always repeated. Where two headings read alike, the source gives them in different places.

How the values were obtained:
Experiment in all cases: SelectScreen kinase assay
ABL2 (Arg) = ABL2 (Arg) (Homo sapiens, UniProt P42684); details: for Inhibition at 1 µM (%): ABL2 (Arg), ZLYTE, ATP Km app
Method: (§1) Selectivity profiling assays were performed by the Invitrogen SelectScreen™ Services. […] The concentration of ATP was selected to be equal to the KM, unless indicated otherwise.

AMPK A1/B1/G1 = AMPK A1/B1/G1 (Homo sapiens, UniProt Q13131)
Method: as §1

MAP3K2 (MEKK2) = MAP3K2 (MEKK2) (Homo sapiens, UniProt Q9Y2U5)
Chain of MAP3K2 (MEKK2) (Q9Y2U5 whole entry): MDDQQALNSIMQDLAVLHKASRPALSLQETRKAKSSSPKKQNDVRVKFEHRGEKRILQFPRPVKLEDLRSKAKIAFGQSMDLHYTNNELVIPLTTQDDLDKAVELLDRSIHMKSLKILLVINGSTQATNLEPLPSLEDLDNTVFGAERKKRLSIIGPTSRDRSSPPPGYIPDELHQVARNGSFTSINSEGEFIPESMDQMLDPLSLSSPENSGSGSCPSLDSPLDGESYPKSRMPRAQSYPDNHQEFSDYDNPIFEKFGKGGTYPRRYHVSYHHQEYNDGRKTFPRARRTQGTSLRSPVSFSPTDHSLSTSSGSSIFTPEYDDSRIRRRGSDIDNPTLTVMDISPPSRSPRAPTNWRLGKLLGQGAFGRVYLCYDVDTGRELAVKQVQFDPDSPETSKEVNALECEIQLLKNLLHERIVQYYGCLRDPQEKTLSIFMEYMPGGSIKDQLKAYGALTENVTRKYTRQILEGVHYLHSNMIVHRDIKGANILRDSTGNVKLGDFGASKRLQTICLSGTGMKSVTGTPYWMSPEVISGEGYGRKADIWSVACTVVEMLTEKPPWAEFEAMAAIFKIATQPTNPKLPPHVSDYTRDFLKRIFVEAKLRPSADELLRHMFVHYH
Method: as §1

MYO3B (MYO3 beta) = target: T1, MYO3B (MYO3 beta) (Homo sapiens, UniProt Q8WXR4)
T1 sequence (Q8WXR4 1-1341): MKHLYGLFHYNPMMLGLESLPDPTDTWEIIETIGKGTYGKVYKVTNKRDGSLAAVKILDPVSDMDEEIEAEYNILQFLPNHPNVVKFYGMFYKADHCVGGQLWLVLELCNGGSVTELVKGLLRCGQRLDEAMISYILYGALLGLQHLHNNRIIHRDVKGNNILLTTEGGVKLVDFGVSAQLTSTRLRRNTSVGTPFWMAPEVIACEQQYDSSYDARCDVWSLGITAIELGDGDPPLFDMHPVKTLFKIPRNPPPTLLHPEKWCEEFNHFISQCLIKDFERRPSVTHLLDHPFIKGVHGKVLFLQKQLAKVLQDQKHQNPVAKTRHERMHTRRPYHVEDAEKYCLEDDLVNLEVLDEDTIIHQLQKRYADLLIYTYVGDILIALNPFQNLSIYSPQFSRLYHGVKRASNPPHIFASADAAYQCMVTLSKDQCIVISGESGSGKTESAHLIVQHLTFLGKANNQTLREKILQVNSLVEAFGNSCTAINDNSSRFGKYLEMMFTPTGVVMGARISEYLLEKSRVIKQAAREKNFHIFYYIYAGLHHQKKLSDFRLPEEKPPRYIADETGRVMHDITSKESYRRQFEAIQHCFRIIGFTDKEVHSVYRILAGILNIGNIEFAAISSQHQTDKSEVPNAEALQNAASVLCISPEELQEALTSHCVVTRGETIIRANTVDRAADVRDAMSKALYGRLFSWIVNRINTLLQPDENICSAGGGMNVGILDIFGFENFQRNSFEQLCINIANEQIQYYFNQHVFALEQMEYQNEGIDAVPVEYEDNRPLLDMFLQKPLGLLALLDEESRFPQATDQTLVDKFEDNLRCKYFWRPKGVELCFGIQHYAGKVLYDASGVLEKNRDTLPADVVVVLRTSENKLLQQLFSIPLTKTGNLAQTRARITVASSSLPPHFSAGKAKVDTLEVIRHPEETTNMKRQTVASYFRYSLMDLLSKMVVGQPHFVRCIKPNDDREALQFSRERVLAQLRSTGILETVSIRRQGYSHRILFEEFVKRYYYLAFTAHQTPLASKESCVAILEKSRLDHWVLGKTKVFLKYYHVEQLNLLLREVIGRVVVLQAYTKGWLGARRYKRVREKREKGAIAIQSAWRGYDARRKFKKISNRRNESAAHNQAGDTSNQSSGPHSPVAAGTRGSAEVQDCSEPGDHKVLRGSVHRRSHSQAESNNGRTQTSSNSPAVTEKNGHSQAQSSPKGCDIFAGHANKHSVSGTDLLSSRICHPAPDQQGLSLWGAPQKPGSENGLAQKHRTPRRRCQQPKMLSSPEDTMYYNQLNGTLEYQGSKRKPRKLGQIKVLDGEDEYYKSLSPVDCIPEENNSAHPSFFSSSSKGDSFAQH
Method: as §1

CSNK1D (CK1 delta) = CSNK1D (CK1 delta) (Homo sapiens, UniProt P48730); details: 1 h, 1 μM WEL028, 1 h preincubation
Method: as §1

HIPK1 (Myak) = HIPK1 (Myak) (Homo sapiens, UniProt Q86Z02); details: for Inhibition at 1 µM (%): HIPK1 (Myak), ZLYTE, ATP Km app
Chain of HIPK1 (Myak) (Q86Z02 whole entry): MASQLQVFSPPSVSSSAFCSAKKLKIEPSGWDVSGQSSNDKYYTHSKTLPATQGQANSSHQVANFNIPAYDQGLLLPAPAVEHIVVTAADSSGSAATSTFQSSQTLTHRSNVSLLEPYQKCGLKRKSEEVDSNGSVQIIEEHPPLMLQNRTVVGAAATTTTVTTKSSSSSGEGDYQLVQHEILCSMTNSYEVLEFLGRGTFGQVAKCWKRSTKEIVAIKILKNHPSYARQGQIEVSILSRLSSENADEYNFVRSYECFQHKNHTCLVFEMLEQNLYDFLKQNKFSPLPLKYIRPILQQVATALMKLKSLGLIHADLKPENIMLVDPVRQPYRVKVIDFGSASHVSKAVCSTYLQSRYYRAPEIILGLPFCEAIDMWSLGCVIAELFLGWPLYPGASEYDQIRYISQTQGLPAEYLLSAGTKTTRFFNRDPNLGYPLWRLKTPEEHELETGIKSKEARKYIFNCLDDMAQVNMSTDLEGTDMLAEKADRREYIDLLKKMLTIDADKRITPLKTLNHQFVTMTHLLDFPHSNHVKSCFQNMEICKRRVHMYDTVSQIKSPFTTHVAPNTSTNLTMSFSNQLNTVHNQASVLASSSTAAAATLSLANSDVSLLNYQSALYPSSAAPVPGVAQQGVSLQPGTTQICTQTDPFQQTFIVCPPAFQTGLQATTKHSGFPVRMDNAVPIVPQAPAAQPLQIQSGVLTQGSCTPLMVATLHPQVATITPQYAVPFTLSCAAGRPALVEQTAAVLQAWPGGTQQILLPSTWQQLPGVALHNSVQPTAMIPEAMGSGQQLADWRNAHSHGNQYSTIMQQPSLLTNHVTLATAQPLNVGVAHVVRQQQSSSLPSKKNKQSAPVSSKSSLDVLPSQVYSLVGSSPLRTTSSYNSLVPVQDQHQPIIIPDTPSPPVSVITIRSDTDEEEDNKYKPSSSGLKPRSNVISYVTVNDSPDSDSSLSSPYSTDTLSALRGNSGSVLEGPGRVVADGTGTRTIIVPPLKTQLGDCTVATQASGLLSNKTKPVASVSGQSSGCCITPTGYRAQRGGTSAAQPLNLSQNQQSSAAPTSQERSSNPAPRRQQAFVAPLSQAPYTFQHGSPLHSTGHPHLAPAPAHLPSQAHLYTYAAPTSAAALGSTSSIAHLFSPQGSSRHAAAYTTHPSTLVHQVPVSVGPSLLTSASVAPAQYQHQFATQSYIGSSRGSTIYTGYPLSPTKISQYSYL
Method: as §1

LIMK1 = LIMK1 (Homo sapiens, UniProt P53667)
Chain of LIMK1 (P53667 whole entry): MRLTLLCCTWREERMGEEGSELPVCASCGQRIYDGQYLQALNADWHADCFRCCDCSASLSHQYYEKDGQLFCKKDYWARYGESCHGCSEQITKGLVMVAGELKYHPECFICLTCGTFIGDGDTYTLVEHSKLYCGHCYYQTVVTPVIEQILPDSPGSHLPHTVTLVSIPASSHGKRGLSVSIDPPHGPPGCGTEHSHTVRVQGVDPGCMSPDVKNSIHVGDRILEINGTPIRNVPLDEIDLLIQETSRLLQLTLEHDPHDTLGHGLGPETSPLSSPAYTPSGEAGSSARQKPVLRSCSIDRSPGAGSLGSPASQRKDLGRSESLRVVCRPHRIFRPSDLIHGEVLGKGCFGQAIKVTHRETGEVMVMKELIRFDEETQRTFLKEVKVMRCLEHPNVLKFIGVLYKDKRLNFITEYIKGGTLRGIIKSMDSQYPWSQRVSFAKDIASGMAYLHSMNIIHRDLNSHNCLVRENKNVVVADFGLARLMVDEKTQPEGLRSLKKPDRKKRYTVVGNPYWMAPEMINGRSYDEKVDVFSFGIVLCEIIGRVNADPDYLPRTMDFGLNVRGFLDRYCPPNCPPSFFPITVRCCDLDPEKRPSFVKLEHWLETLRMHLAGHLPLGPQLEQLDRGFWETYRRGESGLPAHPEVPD
Method: as §1

MAPKAPK2 = MAPKAPK2 (Homo sapiens, UniProt P49137)
Chain of MAPKAPK2 (P49137 whole entry): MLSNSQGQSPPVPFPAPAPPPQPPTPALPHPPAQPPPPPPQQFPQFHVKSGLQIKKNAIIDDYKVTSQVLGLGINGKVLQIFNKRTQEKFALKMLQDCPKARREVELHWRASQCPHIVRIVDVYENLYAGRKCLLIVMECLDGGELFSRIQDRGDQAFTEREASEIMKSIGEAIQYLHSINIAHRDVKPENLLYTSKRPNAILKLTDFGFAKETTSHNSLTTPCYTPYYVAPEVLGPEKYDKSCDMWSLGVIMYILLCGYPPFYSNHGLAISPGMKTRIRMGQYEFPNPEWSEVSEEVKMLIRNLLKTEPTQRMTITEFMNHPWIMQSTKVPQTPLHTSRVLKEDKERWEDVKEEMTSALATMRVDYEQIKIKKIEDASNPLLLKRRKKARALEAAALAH
Method: as §1

ACVR1B (ALK4) = target: T2, ACVR1B (ALK4) (Homo sapiens, UniProt P36896); details: for Inhibition at 1 µM (%): ACVR1B (ALK4), ZLYTE, ATP Km app
T2 sequence (P36896 24-505): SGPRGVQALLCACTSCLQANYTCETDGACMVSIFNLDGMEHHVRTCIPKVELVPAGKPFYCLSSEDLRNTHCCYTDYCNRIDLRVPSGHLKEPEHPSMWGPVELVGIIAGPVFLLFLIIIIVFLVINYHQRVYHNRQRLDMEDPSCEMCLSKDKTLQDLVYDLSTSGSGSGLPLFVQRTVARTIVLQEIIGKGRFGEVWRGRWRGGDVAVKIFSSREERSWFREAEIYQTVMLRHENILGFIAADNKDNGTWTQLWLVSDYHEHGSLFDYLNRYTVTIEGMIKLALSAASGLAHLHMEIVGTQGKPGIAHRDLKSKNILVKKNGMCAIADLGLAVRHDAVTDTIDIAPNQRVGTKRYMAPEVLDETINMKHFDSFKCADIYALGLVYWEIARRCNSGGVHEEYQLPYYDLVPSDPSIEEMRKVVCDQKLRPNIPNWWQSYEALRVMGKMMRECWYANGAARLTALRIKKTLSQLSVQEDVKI
Method: as §1

CDK5/p35 = CDK5/p35 (Homo sapiens, UniProt Q00535)
Chain of CDK5/p35 (Q00535 whole entry): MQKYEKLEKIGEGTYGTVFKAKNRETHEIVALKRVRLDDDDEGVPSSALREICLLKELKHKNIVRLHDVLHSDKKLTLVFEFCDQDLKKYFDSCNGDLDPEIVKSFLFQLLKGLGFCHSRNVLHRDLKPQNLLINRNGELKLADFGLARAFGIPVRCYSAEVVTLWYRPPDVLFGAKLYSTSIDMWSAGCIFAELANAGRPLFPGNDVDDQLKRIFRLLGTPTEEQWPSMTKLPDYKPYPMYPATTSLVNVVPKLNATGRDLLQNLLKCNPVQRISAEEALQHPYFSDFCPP
Chain of CDK5/p35 (Q15078 whole entry partner): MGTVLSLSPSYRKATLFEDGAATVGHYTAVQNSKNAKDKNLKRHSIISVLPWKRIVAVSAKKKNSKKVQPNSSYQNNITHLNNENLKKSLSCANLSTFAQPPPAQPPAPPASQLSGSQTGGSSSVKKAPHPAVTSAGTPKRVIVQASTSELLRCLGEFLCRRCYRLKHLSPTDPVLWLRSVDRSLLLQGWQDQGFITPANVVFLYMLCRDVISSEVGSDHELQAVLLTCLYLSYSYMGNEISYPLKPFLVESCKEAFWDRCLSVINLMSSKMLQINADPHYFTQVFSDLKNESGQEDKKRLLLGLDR
Method: as §1

HCK = HCK (Homo sapiens, UniProt P08631)
Chain of HCK (P08631 whole entry): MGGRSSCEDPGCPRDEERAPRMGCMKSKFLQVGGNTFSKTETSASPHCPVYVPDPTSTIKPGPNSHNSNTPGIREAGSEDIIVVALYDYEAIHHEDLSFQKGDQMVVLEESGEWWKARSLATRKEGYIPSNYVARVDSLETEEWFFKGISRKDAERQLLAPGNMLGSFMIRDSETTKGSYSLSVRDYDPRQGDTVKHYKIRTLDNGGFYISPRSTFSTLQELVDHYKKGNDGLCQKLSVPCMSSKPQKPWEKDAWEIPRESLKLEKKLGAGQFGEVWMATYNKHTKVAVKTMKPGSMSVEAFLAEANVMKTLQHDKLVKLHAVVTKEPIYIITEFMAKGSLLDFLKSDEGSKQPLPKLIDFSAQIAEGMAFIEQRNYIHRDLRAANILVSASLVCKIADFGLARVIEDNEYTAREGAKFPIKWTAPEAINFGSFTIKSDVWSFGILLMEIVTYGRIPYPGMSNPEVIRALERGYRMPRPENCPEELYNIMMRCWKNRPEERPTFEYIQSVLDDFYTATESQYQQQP
Method: as §1

PIM2 = PIM2 (Homo sapiens, UniProt Q9P1W9)
Method: as §1

CHUK (IKK alpha) = CHUK (IKK alpha) (Homo sapiens, UniProt O15111)
Chain of CHUK (IKK alpha) (O15111 whole entry): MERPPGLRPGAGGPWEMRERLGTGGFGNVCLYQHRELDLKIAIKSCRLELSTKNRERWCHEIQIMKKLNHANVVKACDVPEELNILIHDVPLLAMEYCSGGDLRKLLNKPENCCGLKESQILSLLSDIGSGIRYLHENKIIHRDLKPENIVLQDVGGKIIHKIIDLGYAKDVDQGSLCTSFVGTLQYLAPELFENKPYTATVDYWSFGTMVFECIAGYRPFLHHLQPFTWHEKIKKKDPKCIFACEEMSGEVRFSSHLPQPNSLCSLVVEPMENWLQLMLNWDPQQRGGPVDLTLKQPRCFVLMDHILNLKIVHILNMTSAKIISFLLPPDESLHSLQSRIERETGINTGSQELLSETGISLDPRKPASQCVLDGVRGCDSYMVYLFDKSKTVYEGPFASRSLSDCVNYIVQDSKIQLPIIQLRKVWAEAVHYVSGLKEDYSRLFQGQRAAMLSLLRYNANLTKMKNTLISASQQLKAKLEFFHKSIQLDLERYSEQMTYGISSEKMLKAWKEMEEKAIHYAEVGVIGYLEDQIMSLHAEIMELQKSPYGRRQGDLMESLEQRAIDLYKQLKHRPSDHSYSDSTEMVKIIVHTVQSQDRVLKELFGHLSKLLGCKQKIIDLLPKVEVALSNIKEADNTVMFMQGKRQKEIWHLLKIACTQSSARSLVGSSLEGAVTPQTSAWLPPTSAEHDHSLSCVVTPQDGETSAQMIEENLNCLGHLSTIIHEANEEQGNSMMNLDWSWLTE
Method: as §1

[1] = 1 h, 1 μM WEL028, 1 h preincubation

## C#CCOc1ccc(Nc2ncc(Cl)c(Nc3ccccc3NC(=O)C=C)n2)c(OC)c1 [Compound 6]
ABL2 (Arg); [1]
  inhibition at 1 µM: -5%
ABL2 (Arg)
  Inhibition at 1 µM (%): -2%
ABL2 (Arg); listed as WEL028, 1 µM
  Inhibition at 1 µM (%): -9%
AMPK A1/B1/G1; [1]
  inhibition at 1 µM: 13%
AMPK A1/B1/G1; AMPK A1/B1/G1, 1 µM, ZLYTE, ATP Km app
  Inhibition at 1 µM (%): 21%
MAP3K2 (MEKK2); [1]
  inhibition at 1 µM: 3%
MAP3K2 (MEKK2); MAP3K2 (MEKK2), 1 µM, LanthaScreen Binding, listed as WEL028, 1 µM
  Inhibition at 1 µM (%): 6% and 1%
MYO3B (MYO3 beta); [1]
  inhibition at 1 µM: 14%
MYO3B (MYO3 beta); MYO3B (MYO3 beta), 1 µM, LanthaScreen Binding, listed as WEL028, 1 µM
  Inhibition at 1 µM (%): 13%
MYO3B (MYO3 beta); read-out: Inhibition at 1 µM (%), MYO3B (MYO3 beta), 1 µM, LanthaScreen Binding
  inhibition at 1 µM: 15%
CSNK1D (CK1 delta)
  inhibition at 1 µM: 18%
HIPK1 (Myak); [1]
  inhibition at 1 µM: -4%
HIPK1 (Myak)
  Inhibition at 1 µM (%): -2%
HIPK1 (Myak); listed as WEL028, 1 µM
  Inhibition at 1 µM (%): -6%
LIMK1; [1]
  inhibition at 1 µM: 14%
LIMK1; LIMK1, 1 µM, LanthaScreen Binding, listed as WEL028, 1 µM
  Inhibition at 1 µM (%): 12%
LIMK1; read-out: Inhibition at 1 µM (%), LIMK1, 1 µM, LanthaScreen Binding
  inhibition at 1 µM: 16%
MAPKAPK2; [1]
  inhibition at 1 µM: 7%
MAPKAPK2; MAPKAPK2, 1 µM, ZLYTE, ATP Km app, listed as WEL028, 1 µM
  Inhibition at 1 µM (%): 5%
MAPKAPK2; read-out: Inhibition at 1 µM (%), MAPKAPK2, 1 µM, ZLYTE, ATP Km app
  inhibition at 1 µM: 8%
ACVR1B (ALK4); [1]
  inhibition at 1 µM: 1%
ACVR1B (ALK4)
  Inhibition at 1 µM (%): -2%
ACVR1B (ALK4); listed as WEL028, 1 µM
  Inhibition at 1 µM (%): 5%
CDK5/p35; [1]
  inhibition at 1 µM: -4%
CDK5/p35; CDK5/p35, 1 µM, ZLYTE, ATP Km app, listed as WEL028, 1 µM
  Inhibition at 1 µM (%): -8% and 0%
HCK; [1]
  inhibition at 1 µM: 6%
HCK; HCK, 1 µM, ZLYTE, ATP Km app, listed as WEL028, 1 µM
  Inhibition at 1 µM (%): 7%
HCK; read-out: Inhibition at 1 µM (%), HCK, 1 µM, ZLYTE, ATP Km app
  inhibition at 1 µM: 4%
PIM2; [1]
  inhibition at 1 µM: -4%
PIM2; PIM2, 1 µM, ZLYTE, ATP Km app
  Inhibition at 1 µM (%): -3%
CHUK (IKK alpha); [1]
  inhibition at 1 µM: 7%
CHUK (IKK alpha); CHUK (IKK alpha), 1 µM, Adapta, ATP Km app, listed as WEL028, 1 µM
  Inhibition at 1 µM (%): 12% and 3%
